In article PMC8810880, “Comprehensive characterization and molecular insights into the salt tolerance of a Cu, Zn-superoxide dismutase from an Indian Mangrove, Avicennia marina” (Scientific Reports, 2022):

Molecular target: T1, Am_SOD (recombinant Cu, Zn-superoxide dismutase) (Avicennia marina, UniProt Q9AXH2)
T1 construct: full-length 459 bp ORF in pET22b+ (NdeI/XhoI), 6xHis tag (printed as N-terminal); homodimer ~32-33 kDa, monomer ~16 kDa; no signal peptide found
T1 sequence (Q9AXH2 1-152): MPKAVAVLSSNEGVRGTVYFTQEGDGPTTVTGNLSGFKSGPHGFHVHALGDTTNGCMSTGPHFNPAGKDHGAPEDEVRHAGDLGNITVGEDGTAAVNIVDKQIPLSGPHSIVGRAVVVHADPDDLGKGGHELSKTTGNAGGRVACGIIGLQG
Test: riboflavin-NBT SOD inhibition assay, A560
Type: biochemical
Excerpt: riboflavin-NBT SOD inhibition assay, A560 on Am_SOD (recombinant Cu, Zn-superoxide dismutase) | inhibited in a dose-dependent manner by sodium diethyldithiocarbamate trihydrate, and the IC50 was obtained at […]

IC50: 1500 µM
Compound: CCN(CC)C(=S)S [DDC, sodium diethyldithiocarbamate trihydrate]
